Assay results from ChEMBL document CHEMBL5537178, “Discovery of TP0628103: A Highly Potent and Selective MMP-7 Inhibitor with Reduced OATP-Mediated Clearance Designed by Shifting Isoelectric Points” (J Med Chem, 2024).
Active and inactive are the calls of the source. No cut-off for these calls is given here.

How the values were obtained:
[1] = Plasma unbound drug concentration at steady state in UUO surgery-induced renal fibrosis C57BL/6J mouse model at 1 mg/kg/day, sc administered with mini osmotic pump measured after 3 days; assay type: ADME, organism-based; details: in vivo, 72 h, time 3 day
[2] = biological target: CYP2C9 (Homo sapiens, UniProt P11712); assay: Inhibition of CYP2C9 in human liver microsomes at 10 uM by LC-MS/MS analysis relative to control; assay type: ADME, Microsome
CYP2C9, sequence (P11712 whole entry): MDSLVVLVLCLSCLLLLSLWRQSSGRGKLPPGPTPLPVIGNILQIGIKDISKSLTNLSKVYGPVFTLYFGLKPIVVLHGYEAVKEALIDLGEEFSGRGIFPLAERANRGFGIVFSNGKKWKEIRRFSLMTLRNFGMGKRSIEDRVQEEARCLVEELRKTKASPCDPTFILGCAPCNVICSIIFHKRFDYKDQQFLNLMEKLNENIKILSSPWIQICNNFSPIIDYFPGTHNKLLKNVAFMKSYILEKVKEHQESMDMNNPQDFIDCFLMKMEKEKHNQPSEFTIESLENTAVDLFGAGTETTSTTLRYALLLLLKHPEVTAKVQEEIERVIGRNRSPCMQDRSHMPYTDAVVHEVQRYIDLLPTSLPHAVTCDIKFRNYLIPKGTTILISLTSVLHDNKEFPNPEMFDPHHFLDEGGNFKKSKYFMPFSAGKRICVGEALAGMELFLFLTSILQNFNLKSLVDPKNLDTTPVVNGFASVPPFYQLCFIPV

[3] = biological target: T1, CYP2D6 (Homo sapiens, UniProt P10635); assay: Time dependent inhibition of CYP2D6 in human liver microsomes at 10 uM by LC-MS/MS analysis relative to control; assay type: ADME, Microsome; details: read-out: TDI
T1 sequence (P10635 whole entry): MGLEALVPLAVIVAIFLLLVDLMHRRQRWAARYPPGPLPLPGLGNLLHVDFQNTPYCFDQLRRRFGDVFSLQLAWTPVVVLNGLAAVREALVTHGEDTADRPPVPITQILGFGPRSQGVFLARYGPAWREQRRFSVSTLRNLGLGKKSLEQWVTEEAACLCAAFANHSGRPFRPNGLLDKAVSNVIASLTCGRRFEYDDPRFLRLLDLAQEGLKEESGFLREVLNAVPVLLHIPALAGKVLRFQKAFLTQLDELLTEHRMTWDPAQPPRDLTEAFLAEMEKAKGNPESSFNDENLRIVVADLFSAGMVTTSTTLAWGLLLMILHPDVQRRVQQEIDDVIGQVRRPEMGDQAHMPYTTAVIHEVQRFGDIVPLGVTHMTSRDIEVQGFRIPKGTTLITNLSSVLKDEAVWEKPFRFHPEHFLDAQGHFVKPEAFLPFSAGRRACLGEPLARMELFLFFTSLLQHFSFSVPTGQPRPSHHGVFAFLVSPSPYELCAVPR

[4] = Fraction unbound in monkey; assay type: ADME, Macaca mulatta; details: rhesus monkey
[5] = system: Mus musculus; assay: Antifibrotic effect in UUO surgery-induced renal fibrosis C57BL/6J mouse model assessed as reduction in renal collagen at 0.3 to 3 mg/kg/day, sc administered with mini osmotic pump measured after 7 days; assay type: functional, organism-based; details: dose 0.3-3 mg/kg/day, time 7.0 day
[6] = biological target: T2, Interstitial collagenase (Homo sapiens, UniProt P03956); assay: Inhibition of recombinant human MMP1 assessed as enzyme activity by measuring fluorescence using fluorogenic peptide substrate
T2 sequence (P03956 whole entry): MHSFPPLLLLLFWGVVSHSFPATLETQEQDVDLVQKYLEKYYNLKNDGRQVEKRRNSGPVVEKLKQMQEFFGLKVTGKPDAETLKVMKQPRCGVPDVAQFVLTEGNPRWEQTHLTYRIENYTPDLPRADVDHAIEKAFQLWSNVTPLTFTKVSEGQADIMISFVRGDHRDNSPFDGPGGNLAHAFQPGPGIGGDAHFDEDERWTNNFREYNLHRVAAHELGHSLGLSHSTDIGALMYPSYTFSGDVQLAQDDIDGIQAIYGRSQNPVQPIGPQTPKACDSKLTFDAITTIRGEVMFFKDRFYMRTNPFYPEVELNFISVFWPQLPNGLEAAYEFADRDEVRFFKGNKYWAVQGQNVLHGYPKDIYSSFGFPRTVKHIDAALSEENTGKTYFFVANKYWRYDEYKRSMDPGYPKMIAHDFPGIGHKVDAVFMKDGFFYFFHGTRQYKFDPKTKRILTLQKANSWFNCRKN

[7] = Plasma unbound drug concentration at steady state in UUO surgery-induced renal fibrosis C57BL/6J mouse model at 3 mg/kg/day, sc administered with mini osmotic pump measured after 3 days; assay type: ADME, organism-based; details: in vivo, 72 h, time 3 day
[8] = biological target: Matrix metalloproteinase-14 (Homo sapiens, UniProt P50281); assay: Inhibition of recombinant human MMP14 assessed as enzyme activity by measuring fluorescence using fluorogenic peptide substrate
[9] = Inhibition of recombinant mouse MMP1 assessed as enzyme activity by measuring fluorescence using fluorogenic peptide substrate
[10] = biological target: Collagenase 3 (Homo sapiens, UniProt P45452); assay: Inhibition of recombinant human MMP13 assessed as enzyme activity by measuring fluorescence using fluorogenic peptide substrate
[11] = Fraction unbound in rat; assay type: ADME
[12] = biological target: T3, CYP3A (Homo sapiens, UniProt P08684+P20815+P24462+Q9HB55); assay: Time dependent inhibition of CYP3A in human liver microsomes using midazolam as substrate at 10 uM by LC-MS/MS analysis relative to control; assay type: ADME, Microsome; details: probe midazolam, read-out: TDI
[13] = biological target: T4, CYP2C8 (Homo sapiens, UniProt P10632); assay: Time dependent inhibition of CYP2C8 in human liver microsomes at 10 uM by LC-MS/MS analysis relative to control; assay type: ADME, Microsome; details: read-out: TDI
T4 sequence (P10632 whole entry): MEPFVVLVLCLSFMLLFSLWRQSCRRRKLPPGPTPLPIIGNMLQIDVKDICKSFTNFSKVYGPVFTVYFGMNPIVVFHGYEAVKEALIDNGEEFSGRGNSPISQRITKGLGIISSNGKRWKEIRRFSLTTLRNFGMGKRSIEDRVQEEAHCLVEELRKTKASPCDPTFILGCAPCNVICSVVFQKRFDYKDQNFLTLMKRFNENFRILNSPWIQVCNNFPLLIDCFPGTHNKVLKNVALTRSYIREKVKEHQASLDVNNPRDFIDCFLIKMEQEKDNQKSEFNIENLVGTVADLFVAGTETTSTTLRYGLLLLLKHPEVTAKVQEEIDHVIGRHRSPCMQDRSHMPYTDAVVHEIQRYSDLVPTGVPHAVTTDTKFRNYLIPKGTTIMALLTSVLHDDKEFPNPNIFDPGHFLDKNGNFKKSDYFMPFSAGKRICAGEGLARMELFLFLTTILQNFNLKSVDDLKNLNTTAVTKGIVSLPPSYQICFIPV

[14] = biological target: T3, CYP3A; assay: Inhibition of CYP3A in human liver microsomes using testosterone as substrate at 10 uM by LC-MS/MS analysis relative to control; assay type: ADME, Microsome; details: probe testosterone
[15] = Chemical stability of the compound in pH 7.4 aqueous solution assessed as degradation by measuring residual rate incubated for 24 hrs at 65 degC by HPLC analysis; assay type: physicochemical; details: read-out: Activity
[16] = Plasma unbound drug concentration at steady state in UUO surgery-induced renal fibrosis C57BL/6J mouse model at 0.1 mg/kg/day, sc administered with mini osmotic pump measured after 3 days; assay type: ADME, organism-based; details: in vivo, 72 h, time 3 day
[17] = biological target: T1, CYP2D6; assay: Inhibition of CYP2D6 in human liver microsomes at 10 uM by LC-MS/MS analysis relative to control; assay type: ADME, Microsome
[18] = biological target: T4, CYP2C8; assay: Inhibition of CYP2C8 in human liver microsomes at 10 uM by LC-MS/MS analysis relative to control; assay type: ADME, Microsome
[19] = system: HepG2; assay: Cytotoxicity against human HepG2 cells at 10 uM; assay type: toxicity, cell-based; details: hepg2, 10 µM

For `CC(C)(C)[C@H](NC(=O)[C@H](Cc1ccncc1)NC(=O)CNC(=O)CC[C@H](NS(=O)(=O)c1ccc(Cl)c(C(F)(F)F)c1)C(=O)O)C(=O)Nc1ccc(C(=O)N2CCC(C(=O)N[C@H](CCCCN)C(=O)N3CC[C@H](N)C3)CC2)cc1`, the “Cp(f)” value [1] was 15.6 nM, the inhibition at 10 µM [2] was 0.5% and the inhibition at 10 µM [3] was -2.9%. For the same compound, the fraction unbound [4] was 0.2, the Activity [5] was “Active” and the IC50 [6] was greater than 10 µM. The “Cp(f)” value [7] was 31 nM, the IC50 [8] was 1.7 µM and the IC50 [9] was 0.0041 µM. The IC50 [10] was greater than 10 µM, the fraction unbound [11] was 0.178 and the inhibition at 10 µM [12] was -5.2%. For the same compound, the inhibition at 10 µM [13] was 9.1%, the inhibition at 10 µM [14] was 2.5% and the remaining at 24 h [15] was 97.9%. For the same compound, the “Cp(f)” value [16] was 1.32 nM, the inhibition at 10 µM [17] was 6.4% and the inhibition at 10 µM [18] was 14.4%. For the same compound, the Activity [19] was “Non-Toxic”.
